In US9006294B2, “Oral pharmaceutical formulation of pelubiprofen with improved dissolution rate and stability” (Daewon Pharm., Co., Ltd., priority 2008, dated 2015):

How the values were obtained:
[1] = Dissolution test of pelubiprofen tablets, Paddle Method of Korean Pharmacopoeia; assay type: physicochemical
Description: In accordance with the present invention, mean particle size of pelubiprofen preferably ranges from 1 to 30 μm. For example, pelubiprofen particles are difficult to prepare when less than 1 μm in mean particle size, although their dissolution rate increases thanks to the increased surface area thereof. On the other hand, pelubiprofen particles exceeding 30 μm in size have a decreased dissolution rate.
Pelubiprofen tablets differing in the mean particle size of pelubiprofen and the kinds and content of additives were measured for dissolution rate as follows.
A dissolution test was performed on the pelubiprofen tablets prepared in Examples 1 to 20 and Comparative Examples 1 to 18.
The dissolution test was performed according to the procedure of Paddle Method described in Korean Pharmacopoeia. In this regard, one tablet was tested in 900 mL of a dissolution medium (pH 1.2) at 37±0.5° C., with a maintenance of paddle rotation speed at 50 rpm. After a 45-min test, the dissolution medium was taken and filtered through a 0.45 μm filter, followed by the UV analysis of the filtrate.

[2] = Related compounds in pelubiprofen combined with single additives, stored two weeks at 60° C.; assay type: physicochemical; conditions: pelubiprofen 20 mg plus additive
Method: Increased amounts of related compounds were measured after oral pharmaceutical formulations with different mean particle sizes (27.4 μm, 45.6 μm) of pelubiprofen in combination with different amounts of various additives were stored for two weeks under the severe condition of 60° C.

- dissolution rate ([1]; mean particle size of pelubiprofen 9.3 μm): 85.8%
- dissolution rate ([1]; mean particle size of pelubiprofen 19.1 μm): 75.3%
- dissolution rate ([1]; mean particle size of pelubiprofen 27.4 μm): 70.4%
- dissolution rate ([1]; mean particle size of pelubiprofen 45.6 μm): 41.4%
- Increase of Related Cpd. ([2]; MPS of pelubiprofen 27.4 μm): 9.5%
- Total Related Cpd. ([2]; MPS of pelubiprofen 27.4 μm): 0.461%
- Increase of Related Cpd. ([2]; MPS of pelubiprofen 45.6 μm): 2.6%
- Total Related Cpd. ([2]; MPS of pelubiprofen 45.6 μm): 0.432%
Compound: CC(C(=O)O)c1ccc(/C=C2\CCCCC2=O)cc1 (centres unmarked) [pelubiprofen, 2-[4-(2-oxocyclohexylidenemethyl)phenyl]propionic acid]
